We go through one substance from patent publication US20100041630A1, “Methods for Treating or Preventing Inflammation Using a Glycerophosphate Salt” (PRELIEF INC., priority 2007, published 2010).

This test concerns rats with inflammatory condition associated with polyarthritis. In words: Therapeutic effectiveness in rats with polyarthritis induced by heat-killed Mycobacterium tuberculosis. It is filed as in vivo. Particulars: therapeutically effective amount, injection 1 to 5 times a day for 3-10 days, polyarthritic rats.

calcium glycerophosphate [CGP]: the “reduction of the overall arthritis score” value is “at least 20%”.
